Values joined by “and” are separate entries in the source; they are usually repeats but may differ in a detail not shown here. Equal values may be shown once. Read-outs that look alike come from different tables or passages of the source.
Experiments:
MM.1R = experiment: Cell viability assay, suspension cell line, 5 day Alamar Blue (Example 8): MM.1R; assay type: cell-based; settings: 120 h, Multiple Myeloma (Steroid Resistant) Cancer Cell
MM.1S = experiment: Cell viability assay, suspension cell line, 5 day Alamar Blue (Example 8): MM.1S; assay type: cell-based; settings: Homo sapiens, MM1.S, 120 h, Multiple Myeloma (Steroid Sensitive) Cancer Cell
[1] = Pharmacokinetic studies of certain compounds in female Balb/c mice (Example 5); assay type: in vivo
Summary of the method: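 Female Balb/c mice (N=9) were fasted overnight and given compound PO as a suspension in 1% CMC/0.2% Tween 80 or IV in 5% DMSO/5% Solutol HS15/90% saline. Facial-vein plasma was taken from 0.083 to 24 h and assayed by LC-MS. Parameters are non-compartmental, and F was based on AUCINF or AUClast.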

[2] = I-3 IV 1 mg/kg, 24 hr, BQL = below quantifiable limit of 1.00 ng/mL

IC50 (MM.1R): 1 to 8 µM
IC50 (MM.1S): 1 to 8 µM
Plasma concentration Individual ([1]; I-3 IV 1 mg/kg, 0.083 hr, 1 mg/kg): 1790 ng/mL and 2660 ng/mL
Plasma concentration Individual ([1]; I-3 IV 1 mg/kg, 0.25 hr, 1 mg/kg): 633 ng/mL and 539 ng/mL
Plasma concentration Individual ([1]; I-3 IV 1 mg/kg, 0.5 hr, 1 mg/kg): 292 ng/mL and 352 ng/mL
Plasma concentration Individual ([1]; I-3 IV 1 mg/kg, 1 hr, 1 mg/kg): 101 ng/mL and 116 ng/mL
Plasma concentration Individual ([1]; I-3 IV 1 mg/kg, 2 hr, 1 mg/kg): 35.6 ng/mL and 28.1 ng/mL
Plasma concentration Individual ([1]; I-3 IV 1 mg/kg, 4 hr, 1 mg/kg): 7.05 ng/mL and 7.52 ng/mL and 21.3 ng/mL
Plasma concentration Individual ([1]; I-3 IV 1 mg/kg, 8 hr, BQL = below quantifiable limit of 1.00 ng/mL, 1 mg/kg): BQL
Plasma concentration Individual [1, 2]: BQL
Plasma concentration Mean [1, 2]: BQL
F ([1]; I-3 PO 30 mg/kg vs IV 1 mg/kg): 36.0%
Plasma concentration Individual ([1]; I-3 PO 30 mg/kg, 0.083 hr, 30 mg/kg): 69.9 ng/mL and 44.9 ng/mL
Plasma concentration Individual ([1]; I-3 PO 30 mg/kg, 0.25 hr, 30 mg/kg): 420 ng/mL and 461 ng/mL
Plasma concentration Individual ([1]; I-3 PO 30 mg/kg, 0.5 hr, 30 mg/kg): 1920 ng/mL and 1840 ng/mL
Plasma concentration Individual ([1]; I-3 PO 30 mg/kg, 1 hr, 30 mg/kg): 1520 ng/mL and 1760 ng/mL
Plasma concentration Individual ([1]; I-3 PO 30 mg/kg, 2 hr, 30 mg/kg): 1530 ng/mL and 1800 ng/mL
Plasma concentration Individual ([1]; I-3 PO 30 mg/kg, 4 hr, 30 mg/kg): 896 ng/mL and 860 ng/mL
Plasma concentration Individual ([1]; I-3 PO 30 mg/kg, 8 hr, 30 mg/kg): 124 ng/mL and 186 ng/mL
Plasma concentration Individual ([1]; I-3 PO 30 mg/kg, 24 hr, 30 mg/kg): 10.6 ng/mL and 4.10 ng/mL and 3.10 ng/mL
concentration at 0.083 hr ([1]; female, Balb/c, mouse, plasma, iv, 1 mg/kg, I-3 IV 1 mg/kg, 0.083 hr, read-out: Plasma concentration Individual): 1910 ng/mL
concentration at 0.083 hr ([1]; female, Balb/c, mouse, plasma, iv, 1 mg/kg, I-3 IV 1 mg/kg, 0.083 hr, read-out: Plasma concentration Mean): 2120 ng/mL
concentration at 0.25 hr ([1]; female, Balb/c, mouse, plasma, iv, 1 mg/kg, I-3 IV 1 mg/kg, 0.25 hr, read-out: Plasma concentration Individual): 511 ng/mL
concentration at 0.25 hr ([1]; female, Balb/c, mouse, plasma, iv, 1 mg/kg, I-3 IV 1 mg/kg, 0.25 hr, read-out: Plasma concentration Mean): 561 ng/mL
concentration at 0.5 h ([1]; female, Balb/c, mouse, plasma, iv, 1 mg/kg, I-3 IV 1 mg/kg, 0.5 hr, read-out: Plasma concentration Individual): 246 ng/mL
concentration at 0.5 h ([1]; female, Balb/c, mouse, plasma, iv, 1 mg/kg, I-3 IV 1 mg/kg, 0.5 hr, read-out: Plasma concentration Mean): 297 ng/mL
concentration at 1 h ([1]; female, Balb/c, mouse, plasma, iv, 1 mg/kg, I-3 IV 1 mg/kg, 1 hr, read-out: Plasma concentration Individual): 111 ng/mL
concentration at 1 h ([1]; female, Balb/c, mouse, plasma, iv, 1 mg/kg, I-3 IV 1 mg/kg, 1 hr, read-out: Plasma concentration Mean): 109 ng/mL
concentration at 2 h ([1]; female, Balb/c, mouse, plasma, iv, 1 mg/kg, I-3 IV 1 mg/kg, 2 hr, read-out: Plasma concentration Individual): 28.7 ng/mL
concentration at 2 h ([1]; female, Balb/c, mouse, plasma, iv, 1 mg/kg, I-3 IV 1 mg/kg, 2 hr, read-out: Plasma concentration Mean): 30.8 ng/mL
concentration at 4 h ([1]; female, Balb/c, mouse, plasma, iv, 1 mg/kg, I-3 IV 1 mg/kg, 4 hr, read-out: Plasma concentration Mean): 12 ng/mL
concentration at 8 h ([1]; female, Balb/c, mouse, plasma, iv, 1 mg/kg, I-3 IV 1 mg/kg, 8 hr, BQL = below quantifiable limit of 1.00 ng/mL, read-out: Plasma concentration Individual): 1.62 ng/mL
concentration at 8 h ([1]; female, Balb/c, mouse, plasma, iv, 1 mg/kg, I-3 IV 1 mg/kg, 8 hr, BQL = below quantifiable limit of 1.00 ng/mL, read-out: Plasma concentration Mean): 1.62 ng/mL
concentration at 0.083 hr ([1]; female, Balb/c, mouse, plasma, po, 30 mg/kg, I-3 PO 30 mg/kg, 0.083 hr, read-out: Plasma concentration Individual): 56.7 ng/mL
concentration at 0.083 hr ([1]; female, Balb/c, mouse, plasma, po, 30 mg/kg, I-3 PO 30 mg/kg, 0.083 hr, read-out: Plasma concentration Mean): 57.2 ng/mL
concentration at 0.25 hr ([1]; female, Balb/c, mouse, plasma, po, 30 mg/kg, I-3 PO 30 mg/kg, 0.25 hr, read-out: Plasma concentration Individual): 453 ng/mL
concentration at 0.25 hr ([1]; female, Balb/c, mouse, plasma, po, 30 mg/kg, I-3 PO 30 mg/kg, 0.25 hr, read-out: Plasma concentration Mean): 445 ng/mL
concentration at 0.5 hr ([1]; female, Balb/c, mouse, plasma, po, 30 mg/kg, I-3 PO 30 mg/kg, 0.5 hr, read-out: Plasma concentration Individual): 1950 ng/mL
concentration at 0.5 hr ([1]; female, Balb/c, mouse, plasma, po, 30 mg/kg, I-3 PO 30 mg/kg, 0.5 hr, read-out: Plasma concentration Mean): 1900 ng/mL
concentration at 1 hr ([1]; female, Balb/c, mouse, plasma, po, 30 mg/kg, I-3 PO 30 mg/kg, 1 hr, read-out: Plasma concentration Individual): 1490 ng/mL
concentration at 1 hr ([1]; female, Balb/c, mouse, plasma, po, 30 mg/kg, I-3 PO 30 mg/kg, 1 hr, read-out: Plasma concentration Mean): 1590 ng/mL
concentration at 2 hr ([1]; female, Balb/c, mouse, plasma, po, 30 mg/kg, I-3 PO 30 mg/kg, 2 hr, read-out: Plasma concentration Individual): 1750 ng/mL
concentration at 2 hr ([1]; female, Balb/c, mouse, plasma, po, 30 mg/kg, I-3 PO 30 mg/kg, 2 hr, read-out: Plasma concentration Mean): 1690 ng/mL
concentration at 4 hr ([1]; female, Balb/c, mouse, plasma, po, 30 mg/kg, I-3 PO 30 mg/kg, 4 hr, read-out: Plasma concentration Individual): 991 ng/mL
concentration at 4 hr ([1]; female, Balb/c, mouse, plasma, po, 30 mg/kg, I-3 PO 30 mg/kg, 4 hr, read-out: Plasma concentration Mean): 916 ng/mL
concentration at 8 hr ([1]; female, Balb/c, mouse, plasma, po, 30 mg/kg, I-3 PO 30 mg/kg, 8 hr, read-out: Plasma concentration Individual): 182 ng/mL
concentration at 8 hr ([1]; female, Balb/c, mouse, plasma, po, 30 mg/kg, I-3 PO 30 mg/kg, 8 hr, read-out: Plasma concentration Mean): 164 ng/mL
concentration at 24 hr ([1]; female, Balb/c, mouse, plasma, po, 30 mg/kg, I-3 PO 30 mg/kg, 24 hr, read-out: Plasma concentration Mean): 5.93 ng/mL
AUC(0-inf) ([1]; mouse, plasma, I-3 IV 1 mg/kg): 834 ng·h/mL
AUC(0-t) ([1]; mouse, plasma, I-3 IV 1 mg/kg): 831 ng·h/mL
C0 ([1]; mouse, plasma, I-3 IV 1 mg/kg): 4100 ng/mL
MRT inf ([1]; mouse, plasma, I-3 IV 1 mg/kg): 0.58 h
MRT last ([1]; mouse, plasma, I-3 IV 1 mg/kg): 0.542 h
clearance ([1]; mouse, plasma, I-3 IV 1 mg/kg): 20 mL/min/kg
half-life ([1]; mouse, plasma, I-3 IV 1 mg/kg): 1.41 h
Vd ([1]; mouse, plasma, I-3 IV 1 mg/kg, read-out: Vss): 0.695 L/kg
AUC(0-inf) ([1]; mouse, plasma, I-3 PO 30 mg/kg): 9000 ng·h/mL
AUC(0-t) ([1]; mouse, plasma, I-3 PO 30 mg/kg): 8980 ng·h/mL
Cmax ([1]; mouse, plasma, I-3 PO 30 mg/kg): 1900 ng/mL
MRT inf ([1]; mouse, plasma, I-3 PO 30 mg/kg): 3.62 h
MRT last ([1]; mouse, plasma, I-3 PO 30 mg/kg): 3.55 h
Tmax ([1]; mouse, plasma, I-3 PO 30 mg/kg): 0.5 h
half-life ([1]; mouse, plasma, I-3 PO 30 mg/kg): 2.77 h
Compound: CC(C)Cc1sc(Nc2ncc(-c3cccs3)cc2C(=O)O)nc1C1CCCCC1 [Compound I-3]

Reference: patent publication US20240208961A1, “EIF4E INHIBITORS AND USES THEREOF” (PIC Therapeutics, Inc., priority 2022, published 2024)
